Laboratory results: US9079866B2, “Flap modulators” (JANSSEN PHARMACEUTICA NV, priority 2013, dated 2015)
Where a name gives a salt, the structure may show the parent alone. Read-outs that look alike come from different tables or passages of the source.

How the values were obtained:
[1] = target: human FLAP (Homo sapiens (Human), UniProt P20292); test: FLAP binding assay (HTRF format)
Method in brief: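 Read-out is the HTRF ratio. Each reported figure averages two assay plates on which samples were tested in duplicate.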

[2] = system: leukotriene pathway in human whole blood (LTB4 levels); test: Human whole blood assay (A23187-stimulated LTB4); format: cell-based; settings: Homo sapiens, read-out: LTB4 IC50 1:1
Method in brief: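 Heparinised human whole blood, diluted 1:1 in RPMI, was pre-incubated with test compounds for 15 min at 37° Celsius, then stimulated with A23187 (7 μg/mL) for 30 min at 37° Celsius. Plasma LTB4 was measured by immunoassay kit; IC50 from 4-parameter fit; single replicate, at least one healthy donor.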

[3] = human FLAP wild type, HTRF format, average of two plates, duplicates
[4] = read-out: FLAP Binding wild type HTRF Ki
[5] = human whole blood diluted 1:1 in RPMI, A23187-stimulated LTB4

human FLAP, sequence (P20292 whole entry): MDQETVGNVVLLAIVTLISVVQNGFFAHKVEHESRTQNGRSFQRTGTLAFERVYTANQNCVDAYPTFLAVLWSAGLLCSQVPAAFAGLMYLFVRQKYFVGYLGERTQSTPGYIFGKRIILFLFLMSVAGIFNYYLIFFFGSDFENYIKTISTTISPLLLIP

SMILES	Ki [1, 3] [nM]	IC50 [2] [nM]	Ki [1, 4] [nM]	IC50 [2, 5] [nM]
C[Si](C)(C)CCOCSc1ccccc1-c1ccc(-c2cnc(N)cn2)c(F)c1 [Example 244, 5-[3-Fluoro-2′-({[2-(trimethylsilyl)ethoxy]methyl}sulfanyl)biphenyl-4-yl]pyrazin-2-amine]	29	211	–	–
C[Si](C)(C)CCOCS(=O)(=O)c1ccccc1-c1ccc(-c2cnc(N)cn2)c(F)c1 [Example 245, 5-[3-Fluoro-2′-({[2-(trimethylsilyl)ethoxy]methyl}sulfonyl)biphenyl-4-yl]pyrazin-2-amine hydrochloride]	–	233	45	–
CS(=O)(=O)CCCS(=O)(=O)c1ccccc1-c1ccc(-c2cnc(N)cn2)c(F)c1 [Example 246, 5-(3-Fluoro-2′-{[3-(methylsulfonyl)propyl]sulfonyl}biphenyl-4-yl)pyrazin-2-amine hydrochloride]	199	–	–	302
C[C@@H]1CNCCN1S(=O)(=O)c1ccccc1-c1ccc(-c2cnc(N)nc2)c(F)c1 [Example 247, 5-(3-Fluoro-2′-{[(2R)-2-methylpiperazin-1-yl]sulfonyl}biphenyl-4-yl)pyrimidin-2-amine]	89	–	–	197
CC[C@@H](CO)NS(=O)(=O)c1ccccc1-c1ccc(-c2cnc(N)nc2)c(F)c1 [Example 248, 4′-(2-Aminopyrimidin-5-yl)-3′-fluoro-N-[(1S)-1-(hydroxymethyl)propyl]biphenyl-2-sulfonamide]	50	–	–	124
N#CCCN(C1CC1)S(=O)(=O)c1ccccc1-c1ccc(-c2cnc(N)nc2)c(F)c1 [Example 249, 4′-(2-Aminopyrimidin-5-yl)-N-(2-cyanoethyl)-N-cyclopropyl-3′-fluorobiphenyl-2-sulfonamide]	59	–	–	94
N#CCCNS(=O)(=O)c1ccccc1-c1ccc(-c2cnc(N)nc2)c(F)c1 [Example 250, 4′-(2-Aminopyrimidin-5-yl)-N-(2-cyanoethyl)-3′-fluorobiphenyl-2-sulfonamide]	38	–	–	77
CC(C)(CO)CNS(=O)(=O)c1ccccc1-c1ccc(-c2cnc(N)nc2)c(F)c1 [Example 251, 4′-(2-Aminopyrimidin-5-yl)-3′-fluoro-N-(3-hydroxy-2,2-dimethylpropyl)biphenyl-2-sulfonamide]	5	–	–	68
C[C@H]1CNCCN1S(=O)(=O)c1ccccc1-c1ccc(-c2cnc(N)nc2)c(F)c1 [Example 253, 5-(3-Fluoro-2′-{[(2S)-2-methylpiperazin-1-yl]sulfonyl}biphenyl-4-yl)pyrimidin-2-amine]	134	–	–	191
Nc1ncc(-c2ccc(-c3ccccc3S(=O)(=O)C3CC3)cc2F)cn1 [Example 254, 5-[2′-(Cyclopropylsulfonyl)-3-fluorobiphenyl-4-yl]pyrimidin-2-amine]	80	–	–	586
CN([C@H]1CCCNC1)S(=O)(=O)c1ccccc1-c1ccc(-c2cnc(N)nc2)c(F)c1 [Example 256, 4′-(2-Aminopyrimidin-5-yl)-3′-fluoro-N-methyl-N-[(3S)-piperidin-3-yl]biphenyl-2-sulfonamide]	35	–	–	73
CN([C@@H]1CCCNC1)S(=O)(=O)c1ccccc1-c1ccc(-c2cnc(N)nc2)c(F)c1 [Example 257, 4′-(2-Aminopyrimidin-5-yl)-3′-fluoro-N-methyl-N-[(3R)-piperidin-3-yl]biphenyl-2-sulfonamide]	154	–	–	1120
Nc1ncc(-c2ccc(-c3ccccc3S(=O)(=O)N3CCNC[C@@H]3CO)cc2F)cn1 [Example 258, [(2R)-1-{[4′-(2-Aminopyrimidin-5-yl)-3′-fluorobiphenyl-2-yl]sulfonyl}piperazin-2-yl]methanol]	243	–	–	202
CC(C)N(CCO)S(=O)(=O)c1ccccc1-c1ccc(-c2cnc(N)nc2)c(F)c1 [Example 261, 4′-(2-Aminopyrimidin-5-yl)-3′-fluoro-N-(2-hydroxyethyl)-N-(1-methylethyl)biphenyl-2-sulfonamide]	6	–	–	75
Nc1ncc(-c2ccc(-c3ccccc3S(=O)(=O)N[C@H]3CC[C@H](O)CC3)cc2F)cn1 [Example 262, 4′-(2-Aminopyrimidin-5-yl)-3′-fluoro-N-(trans-4-hydroxycyclohexyl)biphenyl-2-sulfonamide]	18	–	–	46
Nc1ncc(-c2ccc(-c3ccccc3S(=O)(=O)N[C@H]3CCNC3=O)cc2F)cn1 [Example 263, 4′-(2-Aminopyrimidin-5-yl)-3′-fluoro-N-[(3S)-2-oxopyrrolidin-3-yl]biphenyl-2-sulfonamide]	169	–	–	207
Nc1ncc(-c2ccc(-c3ccccc3S(=O)(=O)N3CCS(=O)(=O)CC3)cc2F)cn1 [Example 264, 5-{2′-[(1,1-Dioxidothiomorpholin-4-yl)sulfonyl]-3-fluorobiphenyl-4-yl}pyrimidin-2-amine trifluoroacetic salt]	28	–	–	144
Nc1ncc(-c2ccc(-c3ccccc3S(=O)(=O)N3CC(O)C3)cc2F)cn1 [Example 265, 1-{[4′-(2-Aminopyrimidin-5-yl)-3′-fluorobiphenyl-2-yl]sulfonyl}azetidin-3-ol trifluoroacetic acid salt]	45	–	–	160
Nc1ncc(-c2ccc(-c3ccccc3S(=O)(=O)N[C@@H]3CCCNC3=O)cc2F)cn1 [Example 266, 4′-(2-Aminopyrimidin-5-yl)-3′-fluoro-N-[(3R)-2-oxopiperidin-3-yl]biphenyl-2-sulfonamide trifluoroacetic acid salt]	–	–	184	464
Nc1ncc(-c2ccc(-c3ccccc3S(=O)(=O)N[C@H]3CCCNC3=O)cc2F)cn1 [Example 267, 4′-(2-Aminopyrimidin-5-yl)-3′-fluoro-N-[(3S)-2-oxopiperidin-3-yl]biphenyl-2-sulfonamide trifluoroacetic acid salt]	–	–	154	350
C[C@@H](NS(=O)(=O)c1ccccc1-c1ccc(-c2cnc(N)nc2)c(F)c1)C(F)(F)F [Example 268, 4′-(2-Aminopyrimidin-5-yl)-3′-fluoro-N-[(1R)-2,2,2-trifluoro-1-methylethyl]biphenyl-2-sulfonamide trifluoroacetic acid salt]	–	–	11	56
CC(C)(C)[C@H](CO)NS(=O)(=O)c1ccccc1-c1ccc(-c2cnc(N)nc2)c(F)c1 [Example 269, 4′-(2-Aminopyrimidin-5-yl)-3′-fluoro-N-[(1R)-1-(hydroxymethyl)-2,2-dimethylpropyl]biphenyl-2-sulfonamide trifluoroacetic acid salt]	–	–	15	87
CC(C)(C)[C@@H](CO)NS(=O)(=O)c1ccccc1-c1ccc(-c2cnc(N)nc2)c(F)c1 [Example 270, 4′-(2-Aminopyrimidin-5-yl)-3′-fluoro-N-[(1S)-1-(hydroxymethyl)-2,2-dimethylpropyl]biphenyl-2-sulfonamide trifluoroacetic acid salt]	–	–	57	1060
CC(C)[C@@H](CO)NS(=O)(=O)c1ccccc1-c1ccc(-c2cnc(N)nc2)c(F)c1 [Example 271, 4′-(2-Aminopyrimidin-5-yl)-3′-fluoro-N-[(1S)-1-(hydroxymethyl)-2-methylpropyl]biphenyl-2-sulfonamide trifluoroacetic acid salt]	51	–	–	606
